Experimental findings from publication PMC9505031, “Implementation of QbD Approach to the Development of Chromatographic Methods for the Determination of Complete Impurity Profile of Substance on the Preclinical and Clinical Step of Drug Discovery Studies” (International Journal of Molecular Sciences, 2022) are described below.

Like-named read-outs stand apart in the source and are kept apart here.

Data set [1] in a line: Chromatographic hydrophobicity index CHI logD determination (UltraCore SuperC18 column). The data set is classed as physicochemical. An excerpt: Due to this observation and to better characterise elution conditions for method development, it was decided to determine the chromatographic hydrophobicity index CHI logD of CPL409116 and its impurities by the methodology described by Valko et al.. Chromatographic hydrophobicity index CHI logD has been originally used for high-throughput physicochemical property profiling for rational drug design, where determined values strongly correlate to lipophilicity (logP and/or logD) of molecules.
On a basis of determining lipophilicity described by CHI logD at pH 2.6, 7.4 and 10.5 on ACE Ultracore SuperC18 column more valuable data were obtained in a contest of chromatography interactions molecules with stationary phase extended with their acid-base properties (Table 1). Particularly, strong pH dependence on retention factors has been observed for JAK ImpC and also for JAK07, JAK08, and JAK09. Greater differences and a wider range of CHI logD values, calculated on a base of peaks retention times of compounds, in the lower pH range than in the pH 7.4–10.5 range have been observed. The use of mobile phases with a lower pH would allow obtaining higher chromatographic resolutions and higher selectivity of the analytical method.
For the CHI logD determination, separate solutions of all the tested sample were prepared at a concentration of 1 mM in DMSO. Reference mix solutions have a concentration of 1 mM in DMSO.
The CHI logD for JAK01 and its impurities was determined on an UltraCore 2.5 SuperC18 (2.1 × 50 mm, 2.5 µm, ACE) column with eluent A consisting of formic acid (10 mM, pH 2.6), and ammonium acetate (50 mM) buffers with different concentrations of additives were used to prepare buffer solutions of 7.4, and 10.5, and eluent B consisted ACN [58].

Data set [2] in a line: Solubility in aqueous solutions. The data set is classed as physicochemical.

Usually solubility stands for how much of the substance goes into solution per volume. Low values mean a poorly soluble substance, high ones a readily soluble substance. Take `COc1cccc(-c2cc3ncc(C(N)=O)c(N[C@@H]4CCN(c5ccc(C#N)nn5)CC4(C)C)n3n2)n1` [CPL409116]: the chromatographic logD in data set [1] (pH 2.6, 10 mM formic acid/ACN, read-out: CHILogD pH 2.6) stood at 3.51; in data set [1] (pH 7.4, 50 mM ammonium acetate/ACN, read-out: CHILogD pH 7.4), 3.09; in data set [1] (pH 10.5, 50 mM ammonium acetate/ACN, read-out: CHILogD pH 10.5), 3.05. Further, in data set [2] (aqueous solutions), the “Solubility in aqueous solutions” value is on record as “practically insoluble”. This compound returned a solubility in data set [2] (pH 7.4, aqueous buffer, phosphate buffer with a pH of 7.4) of under 0.1 µg/mL.
